Calls of active or inactive are those of the source. Cut-off read from the data, not from the text of the source, for most assays here: actives have a measured EC50 and inactives only a lower limit.
Key:
[1] = target: Mitogen-activated protein kinase 10 (Homo sapiens, UniProt P53779); test: Dose response biochemical screening assay for inhibitors of c-Jun N-Terminal Kinase 3 (JNK3). [Related pubchem assays: 746 ]
Protein skinhead-1 = target: T1, Protein skinhead-1 (Caenorhabditis elegans, UniProt P34707); format: functional
T1 sequence (P34707 whole entry): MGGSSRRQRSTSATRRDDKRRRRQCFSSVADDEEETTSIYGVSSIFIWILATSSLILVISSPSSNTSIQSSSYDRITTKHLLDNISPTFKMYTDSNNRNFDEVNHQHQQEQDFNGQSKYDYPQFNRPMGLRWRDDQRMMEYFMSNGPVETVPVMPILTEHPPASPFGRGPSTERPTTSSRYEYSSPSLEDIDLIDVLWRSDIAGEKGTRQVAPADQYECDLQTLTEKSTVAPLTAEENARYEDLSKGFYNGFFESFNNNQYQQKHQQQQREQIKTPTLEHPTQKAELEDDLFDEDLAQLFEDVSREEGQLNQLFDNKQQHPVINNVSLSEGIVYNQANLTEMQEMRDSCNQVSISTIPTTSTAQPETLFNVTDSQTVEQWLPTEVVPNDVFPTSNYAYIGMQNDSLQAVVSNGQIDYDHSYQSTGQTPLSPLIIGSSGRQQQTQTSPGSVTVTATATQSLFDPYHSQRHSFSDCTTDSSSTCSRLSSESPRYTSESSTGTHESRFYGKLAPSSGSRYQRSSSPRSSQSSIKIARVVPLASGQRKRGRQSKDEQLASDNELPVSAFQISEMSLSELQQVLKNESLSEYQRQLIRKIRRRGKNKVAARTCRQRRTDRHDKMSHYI

Major prion protein = Major prion protein (Homo sapiens, UniProt P04156); format: functional, cell-based
[2] = target: T2, Aryl hydrocarbon receptor (Homo sapiens, UniProt P35869); test: Luminescence-based cell-based high throughput dose response assay for activators of the Aryl Hydrocarbon Receptor (AHR). [Related pubchem assays: 2796 (Primary screen (AHR activators in singlicate)), 2845 (Confirmation screen (AHR activators in triplicate)), 434939 (Counterscreen (PXR activators in triplicate)), 2804 (Summary (AHR activators))]; format: ADME
T2 sequence (P35869 whole entry): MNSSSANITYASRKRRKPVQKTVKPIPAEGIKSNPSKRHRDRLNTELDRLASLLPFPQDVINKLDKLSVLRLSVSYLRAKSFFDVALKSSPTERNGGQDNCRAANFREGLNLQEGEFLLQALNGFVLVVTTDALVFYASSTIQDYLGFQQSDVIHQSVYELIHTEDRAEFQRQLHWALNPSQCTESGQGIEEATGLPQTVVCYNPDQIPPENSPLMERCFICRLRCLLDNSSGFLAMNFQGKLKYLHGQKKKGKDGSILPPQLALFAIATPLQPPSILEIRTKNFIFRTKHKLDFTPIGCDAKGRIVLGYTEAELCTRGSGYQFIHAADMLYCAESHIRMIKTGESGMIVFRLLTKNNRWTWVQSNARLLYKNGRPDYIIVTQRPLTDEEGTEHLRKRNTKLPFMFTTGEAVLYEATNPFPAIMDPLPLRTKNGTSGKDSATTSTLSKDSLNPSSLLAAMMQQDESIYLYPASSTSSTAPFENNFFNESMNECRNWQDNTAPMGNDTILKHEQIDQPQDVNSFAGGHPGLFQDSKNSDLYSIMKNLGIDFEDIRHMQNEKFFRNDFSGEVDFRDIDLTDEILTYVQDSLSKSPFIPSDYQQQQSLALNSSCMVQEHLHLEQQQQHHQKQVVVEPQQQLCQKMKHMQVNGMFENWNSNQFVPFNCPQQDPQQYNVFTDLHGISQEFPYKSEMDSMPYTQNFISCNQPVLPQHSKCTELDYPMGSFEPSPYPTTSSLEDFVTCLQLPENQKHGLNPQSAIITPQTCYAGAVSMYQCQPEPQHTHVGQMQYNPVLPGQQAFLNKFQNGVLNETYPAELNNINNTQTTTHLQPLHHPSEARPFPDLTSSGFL

[3] = Luminescence Cell-Based Dose Response to Identify Activators of Luciferase Translation or Activity in H4-C Neuroglioblastoma Cells. [Related pubchem assays: 1829 (Project Summary), 1814 (Primary HTS)]; format: functional
[4] = target: T3, Type-1 angiotensin II receptor (Homo sapiens, UniProt P30556); test: AT1 receptor antagonists, dose response, selectivity assay for APJ receptor antagonist project, cell-based, uHTS hits (AID 463214); format: functional;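 note: antagonist potency against angiotensin II stimulated AT1 response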
T3 sequence (P30556 whole entry): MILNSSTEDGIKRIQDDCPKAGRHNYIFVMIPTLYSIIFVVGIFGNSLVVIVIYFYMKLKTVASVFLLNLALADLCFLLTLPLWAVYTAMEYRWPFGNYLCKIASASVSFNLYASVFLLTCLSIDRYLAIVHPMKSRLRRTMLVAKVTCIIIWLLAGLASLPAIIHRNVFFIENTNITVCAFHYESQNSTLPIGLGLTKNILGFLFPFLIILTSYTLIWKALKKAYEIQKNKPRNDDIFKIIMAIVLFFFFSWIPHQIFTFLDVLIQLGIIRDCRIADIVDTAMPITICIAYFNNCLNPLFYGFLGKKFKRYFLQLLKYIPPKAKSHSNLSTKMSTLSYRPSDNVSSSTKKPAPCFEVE

[5] = Luminescence Cell-Based Dose Response to Identify Activators of 5'UTR Stem-Loop Driven Prion Protein mRNA Translation in H4-C Neuroglioblastoma Cells. [Related pubchem assays: 1829 (Project Summary), 1814 (Primary HTS)]; format: functional
Beta-galactosidase = Beta-galactosidase (Escherichia coli, UniProt Q8VNN2); test: PubChem AID 485352; format: functional
Beta-galactosidase, sequence (Q8VNN2 whole entry): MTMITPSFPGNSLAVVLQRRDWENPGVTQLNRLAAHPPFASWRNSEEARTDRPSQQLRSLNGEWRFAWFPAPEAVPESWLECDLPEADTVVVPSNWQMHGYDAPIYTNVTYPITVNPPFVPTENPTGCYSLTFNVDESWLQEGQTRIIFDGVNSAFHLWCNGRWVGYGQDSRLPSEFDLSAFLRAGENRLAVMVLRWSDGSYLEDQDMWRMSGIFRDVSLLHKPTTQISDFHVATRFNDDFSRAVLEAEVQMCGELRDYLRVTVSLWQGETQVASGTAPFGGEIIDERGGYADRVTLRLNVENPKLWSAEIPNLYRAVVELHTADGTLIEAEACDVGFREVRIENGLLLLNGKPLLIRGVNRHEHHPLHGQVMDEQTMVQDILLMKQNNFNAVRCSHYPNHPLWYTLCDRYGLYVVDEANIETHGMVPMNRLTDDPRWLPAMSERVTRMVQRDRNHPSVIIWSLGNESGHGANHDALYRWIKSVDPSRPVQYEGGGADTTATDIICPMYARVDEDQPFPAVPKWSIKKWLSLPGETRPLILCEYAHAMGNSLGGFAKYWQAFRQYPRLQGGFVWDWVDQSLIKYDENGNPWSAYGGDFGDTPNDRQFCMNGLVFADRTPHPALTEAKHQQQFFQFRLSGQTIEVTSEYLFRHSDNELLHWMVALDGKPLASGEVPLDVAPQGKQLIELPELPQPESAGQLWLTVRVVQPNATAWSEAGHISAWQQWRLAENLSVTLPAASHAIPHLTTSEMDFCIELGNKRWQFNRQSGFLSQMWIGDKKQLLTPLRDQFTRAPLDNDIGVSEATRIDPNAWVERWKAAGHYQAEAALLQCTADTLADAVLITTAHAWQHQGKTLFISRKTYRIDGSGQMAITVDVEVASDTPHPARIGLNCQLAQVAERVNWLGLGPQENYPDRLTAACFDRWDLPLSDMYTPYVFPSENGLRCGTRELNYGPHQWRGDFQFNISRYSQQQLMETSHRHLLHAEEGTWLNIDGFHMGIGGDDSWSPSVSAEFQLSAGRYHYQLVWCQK

[6] = Luminescence Cell-Based Dose Response HTS to Identify Activators of Luciferase Translation or Activity in H4 […] Cells. [Related pubchem assays: 1829 (Project Summary), 1814 (Primary HTS)]; format: functional
Large T antigen = Large T antigen (Simian virus 40, UniProt P03070); format: functional, Betapolyomavirus macacae;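 note: Confirmatory-stage PubChem screen for compounds that inhibit SV40 T antigen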
Large T antigen, sequence (P03070 whole entry): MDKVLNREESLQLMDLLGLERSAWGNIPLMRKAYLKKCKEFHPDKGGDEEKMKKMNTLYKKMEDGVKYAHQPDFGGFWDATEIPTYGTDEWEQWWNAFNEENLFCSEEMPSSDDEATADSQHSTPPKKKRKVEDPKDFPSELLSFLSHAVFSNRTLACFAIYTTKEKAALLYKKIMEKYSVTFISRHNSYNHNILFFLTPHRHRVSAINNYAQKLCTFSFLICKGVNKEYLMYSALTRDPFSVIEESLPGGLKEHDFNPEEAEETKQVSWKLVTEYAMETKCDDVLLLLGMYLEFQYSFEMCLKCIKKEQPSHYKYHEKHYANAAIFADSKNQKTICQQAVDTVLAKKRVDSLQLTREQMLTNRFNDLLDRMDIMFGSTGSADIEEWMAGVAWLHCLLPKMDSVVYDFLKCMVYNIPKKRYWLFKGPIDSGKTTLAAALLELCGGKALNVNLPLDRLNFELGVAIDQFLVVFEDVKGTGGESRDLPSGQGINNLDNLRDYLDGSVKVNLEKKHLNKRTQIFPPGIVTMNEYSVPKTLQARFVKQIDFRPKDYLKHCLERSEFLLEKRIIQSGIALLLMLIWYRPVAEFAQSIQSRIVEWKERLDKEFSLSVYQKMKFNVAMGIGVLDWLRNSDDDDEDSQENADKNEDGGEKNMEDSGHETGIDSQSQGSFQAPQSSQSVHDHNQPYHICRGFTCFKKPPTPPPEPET

H4 = test: Luminescence Cell-Based Dose Response HTS to Identify Activators of 5'UTR Stem-Loop Driven Prion Protein mRNA Translation in H4 Neuroglioblastoma Cells. [Related pubchem assays: 1829 (Project Summary), 1814 (Primary HTS)]; format: functional; conditions: Homo sapiens
[7] = Luminescence Cell-Based Dose Confirmation to Identify Activators of 5'UTR Stem-Loop Driven Alpha-Synuclein mRNA Translation in H4 Neuroglioblastoma Cells. [Related pubchem assays: 1829 (Project Summary), 1814 (Primary HTS)]; format: functional
[8] = Luminescence Cell-Based Dose Confirmation HTS to Identify Activators of 5'UTR Stem-Loop Driven Alpha-Synuclein mRNA Translation in H4 Neuroglioblastoma Cells. [Related pubchem assays: 1829 (Project Summary), 1814 (Primary HTS)]; format: functional
[9] = target: T4, Replicative DNA helicase DnaB (Mycobacterium tuberculosis, UniProt P9WMR3); test: DnaB intein splicing inhibitors, dose response, biochemical, cell-free fluorescence (AID 449749); format: functional
T4 sequence (P9WMR3 whole entry): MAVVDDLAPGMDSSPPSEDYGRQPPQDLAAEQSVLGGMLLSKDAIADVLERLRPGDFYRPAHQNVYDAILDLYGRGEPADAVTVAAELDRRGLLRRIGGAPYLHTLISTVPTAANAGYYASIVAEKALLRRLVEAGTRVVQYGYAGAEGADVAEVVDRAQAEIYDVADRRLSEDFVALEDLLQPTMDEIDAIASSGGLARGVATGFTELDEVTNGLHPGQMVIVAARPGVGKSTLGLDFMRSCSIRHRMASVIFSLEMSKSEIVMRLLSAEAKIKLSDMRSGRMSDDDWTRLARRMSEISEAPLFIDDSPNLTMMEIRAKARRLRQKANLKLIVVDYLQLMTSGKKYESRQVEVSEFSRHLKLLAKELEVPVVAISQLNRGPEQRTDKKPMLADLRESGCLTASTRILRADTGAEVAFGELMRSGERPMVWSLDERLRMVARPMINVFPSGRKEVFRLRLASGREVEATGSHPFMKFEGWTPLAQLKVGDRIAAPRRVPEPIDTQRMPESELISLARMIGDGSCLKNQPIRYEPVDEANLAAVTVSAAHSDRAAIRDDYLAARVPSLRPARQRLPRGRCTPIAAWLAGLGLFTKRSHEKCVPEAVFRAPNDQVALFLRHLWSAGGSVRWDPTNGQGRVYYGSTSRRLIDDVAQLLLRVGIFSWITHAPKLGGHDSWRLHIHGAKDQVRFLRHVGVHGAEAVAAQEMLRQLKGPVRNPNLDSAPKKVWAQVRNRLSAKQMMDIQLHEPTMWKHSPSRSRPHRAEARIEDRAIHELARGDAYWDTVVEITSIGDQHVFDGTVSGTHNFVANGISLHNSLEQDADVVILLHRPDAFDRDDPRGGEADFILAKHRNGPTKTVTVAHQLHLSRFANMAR

Protein RecA = target: T5, Protein RecA (Mycobacterium tuberculosis, UniProt P9WHJ3); test: Fluorescence Cell-Free Homogeneous Dose Retest to Identify Inhibitors of RecA-Intein Splicing Activity. [Related pubchem assays (depositor defined):AID2097, AID2223, AID489010, AID492950]; format: functional
T5 sequence (P9WHJ3 whole entry): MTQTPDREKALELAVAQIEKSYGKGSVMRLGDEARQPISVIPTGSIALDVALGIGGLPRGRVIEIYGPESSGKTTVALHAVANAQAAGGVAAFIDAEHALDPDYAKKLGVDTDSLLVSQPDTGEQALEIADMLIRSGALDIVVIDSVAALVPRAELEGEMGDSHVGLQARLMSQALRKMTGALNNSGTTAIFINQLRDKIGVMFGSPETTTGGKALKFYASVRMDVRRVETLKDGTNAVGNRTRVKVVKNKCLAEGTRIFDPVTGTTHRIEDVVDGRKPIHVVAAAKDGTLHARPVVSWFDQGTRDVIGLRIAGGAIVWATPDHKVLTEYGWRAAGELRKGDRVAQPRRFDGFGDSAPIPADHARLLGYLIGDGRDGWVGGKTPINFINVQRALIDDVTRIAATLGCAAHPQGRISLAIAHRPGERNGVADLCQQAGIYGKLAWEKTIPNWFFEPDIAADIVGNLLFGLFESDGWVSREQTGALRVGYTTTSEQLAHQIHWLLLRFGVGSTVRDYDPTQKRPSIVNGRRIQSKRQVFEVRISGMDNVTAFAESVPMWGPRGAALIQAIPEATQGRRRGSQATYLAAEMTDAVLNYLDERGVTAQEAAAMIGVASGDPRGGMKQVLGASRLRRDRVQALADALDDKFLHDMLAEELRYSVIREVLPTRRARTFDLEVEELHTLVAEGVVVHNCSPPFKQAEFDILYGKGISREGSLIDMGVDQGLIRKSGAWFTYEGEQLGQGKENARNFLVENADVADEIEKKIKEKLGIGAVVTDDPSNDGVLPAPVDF

[10] = target: T6, Microphthalmia-associated transcription factor (Homo sapiens, UniProt O75030); test: TRPM1 promoter luciferase signal decrease, dose response, MITF inhibitor project, cell-based, SK-MEL-5, cherry-picked, set 3 (AID 493073); format: functional
T6 sequence (O75030 whole entry): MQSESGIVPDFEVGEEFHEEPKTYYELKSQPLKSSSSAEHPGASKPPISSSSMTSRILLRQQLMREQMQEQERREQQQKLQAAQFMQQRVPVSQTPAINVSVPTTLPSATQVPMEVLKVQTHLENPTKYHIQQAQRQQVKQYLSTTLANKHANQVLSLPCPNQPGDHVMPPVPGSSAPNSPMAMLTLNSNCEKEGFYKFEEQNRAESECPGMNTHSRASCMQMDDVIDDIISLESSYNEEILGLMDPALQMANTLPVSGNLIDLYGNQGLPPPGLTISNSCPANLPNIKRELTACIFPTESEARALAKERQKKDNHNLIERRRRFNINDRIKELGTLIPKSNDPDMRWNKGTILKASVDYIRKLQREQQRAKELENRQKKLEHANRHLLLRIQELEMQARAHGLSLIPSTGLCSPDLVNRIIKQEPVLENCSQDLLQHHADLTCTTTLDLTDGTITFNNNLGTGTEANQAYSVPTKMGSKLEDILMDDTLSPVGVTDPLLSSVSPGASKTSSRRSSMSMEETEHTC

[11] = cytotoxicity in KRAS-transformed pancreatic duct cells, primary screen, cell-based, fluorescence, HTS (AID 431); format: functional; conditions: Homo sapiens;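 note: cell line used: HPDE-C7K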
[12] = cytotoxicity in HPDE-C7 cells, cell-based, fluorescence, HTS (AID 430); format: functional; conditions: Homo sapiens

Mitogen-activated protein kinase 10, sequence (P53779 whole entry): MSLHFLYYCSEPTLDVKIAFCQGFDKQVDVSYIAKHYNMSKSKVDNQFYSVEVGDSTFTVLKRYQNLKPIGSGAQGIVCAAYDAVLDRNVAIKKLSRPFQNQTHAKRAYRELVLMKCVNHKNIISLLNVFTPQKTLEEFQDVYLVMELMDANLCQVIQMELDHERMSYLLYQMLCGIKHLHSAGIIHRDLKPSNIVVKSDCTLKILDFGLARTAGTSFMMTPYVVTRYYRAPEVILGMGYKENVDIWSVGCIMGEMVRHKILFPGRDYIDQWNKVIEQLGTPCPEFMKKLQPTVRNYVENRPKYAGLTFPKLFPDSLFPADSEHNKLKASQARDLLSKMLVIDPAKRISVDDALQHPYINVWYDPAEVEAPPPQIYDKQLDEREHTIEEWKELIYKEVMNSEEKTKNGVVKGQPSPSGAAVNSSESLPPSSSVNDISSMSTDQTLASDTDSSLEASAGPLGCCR

| SMILES | EC50 [2] | EC50 [3] | EC50 [5] | EC50 [6] | EC50 (H4) | EC50 [7] | also measured |
| --- | --- | --- | --- | --- | --- | --- | --- |
| COc1ccc(-c2nnc(-c3ccc(Br)o3)o2)cc1OC |  |  |  |  |  |  | IC50 [1]: > 93.1 µM (not active); IC50 (cells): > 138 µM (inactive); IC50 (Protein skinhead-1): > 100 µM (inactive); IC50 (Major prion protein): 4.59 µM (active) |
| CC(=O)Nc1cccc2c1C(=O)N(c1ccc(C)cc1)C2=O | 1.09 µM (active) |  |  |  |  |  |  |
| Cc1ccc(SSc2cc(C)ccc2N)c(N)c1 |  | 1.67 µM (active) | 1.21 µM (active) | < 0.1 µM (inconclusive) | 42.5 µM (inconclusive) | 5 µM (active) | IC50 [4]: > 40 µM (not active); EC50 (Beta-galactosidase): > 40 µM (inactive); IC50 (Large T antigen): 10.8 µM (active) |
| O=C(CCl)Nc1cccc(-c2cnc3ccccc3n2)c1 |  | 0.561 µM (active) | > 12 µM (not active) | 2.98 µM (active) | > 60 µM (not active) | 0.7 µM (active) | EC50 [8]: < 0.1 µM (active); AC50 [9]: 53.1 µM (active); EC50 (Protein RecA): 13.3 µM (active); AC50 [10]: 4.02 µM (active) |
| Cc1nc(N)nc(Nc2ccc(Cl)cc2)c1Br | 0.351 µM (active) |  |  |  |  |  |  |
| Cn1c(CCN2CCCCCC2)nc2cc(NC(=O)Nc3ccccc3)ccc21 |  |  |  |  |  |  | EC50 [11]: > 20 µM (not active); EC50 [12]: > 20 µM (not active) |
| O=C(CCC(=O)N1CCN(C2CCCC2)CC1)Nc1nnc(C(F)(F)F)s1 |  |  |  |  |  |  | EC50 [11]: > 20 µM (not active); EC50 [12]: > 20 µM (not active) |
| Oc1ncnc2nn(-c3ccccc3)nc12 |  | > 12 µM (not active) | 4.54 µM (active) | > 120 µM (not active) | > 120 µM (not active) | > 12 µM (not active) | EC50 [8]: < 0.1 µM (active) |
| CC(=O)Nc1cccc(OCC(=O)Nc2ccc(F)cc2)c1 | 10.6 µM (not active) |  |  |  |  |  |  |
| CCc1cc(/C(Cc2ccc3ccccc3n2)=N\O)c(O)cc1O | > 3.39 µM (active) |  |  |  |  |  |  |

— ChEMBL document CHEMBL1201862, “PubChem BioAssay data set” (2004)
